In PubChem BioAssay (NCI):
Values joined by “and” are separate entries in the source; they are usually repeats but may differ in a detail not shown here. Identical values can stand only once.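 Protocol summary: plate cells (96-well), add compound at 5 concentrations, incubate 48 h, interpolate endpoints linearly. Here, GI50 denotes the concentration required for 50% inhibition of growth. TGI: concentration producing complete growth inhibition.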

How the values were obtained:
Assay in all cases: DTP human tumour cell line panel, 48 h
OVCAR-5 ovarian = system: OVCAR-5 ovarian
786-0 renal = system: 786-0 renal
HL-60(TB) leukemia = system: HL-60(TB) leukemia
HCC-2998 colon = system: HCC-2998 colon
MALME-3M melanoma = system: MALME-3M melanoma
MCF7 breast = system: MCF7 breast
DMS 114 small cell lung = system: DMS 114 small cell lung
RXF-631 renal = system: RXF-631 renal
DLD-1 colon = system: DLD-1 colon
HOP-18 NSCLC = system: HOP-18 NSCLC
XF 498 CNS = system: XF 498 CNS
M19-MEL melanoma = system: M19-MEL melanoma
KM20L2 colon = system: KM20L2 colon
DMS 273 small cell lung = system: DMS 273 small cell lung
SNB-78 CNS = system: SNB-78 CNS
LXFL 529 NSCLC = system: LXFL 529 NSCLC

Compound | TGI (OVCAR-5 ovarian) [µM] | TGI (786-0 renal) [µM] | TGI (HL-60(TB) leukemia) [µM] | TGI (HCC-2998 colon) [µM] | TGI (MALME-3M melanoma) | TGI (MCF7 breast) [µM] | further results
COC(=O)[C@]12CC[C@H]3CN(S(=O)(=O)c4ccc(C)cc4)[C@H]([C@H]31)[C@H](c1ccco1)N2S(=O)(=O)c1ccc(C)cc1 | > 100 | > 100 | 91.5 | > 100 | 58.3 µM | > 100 | –
Cc1ccc(C(=O)NC2C(=O)NC(C(C)C)C(=O)N3CCCC3C(=O)N(C)CC(=O)N(C)C(C(C)C)C(=O)OC2C)c2c1Oc1c(c(C(=O)NC3C(=O)NC(C(C)C)C(=O)N4CCCC4C(=O)N(C)CC(=O)N(C)C(C(C)C)C(=O)OC3C)c3nc(-c4ccccc4)c(=O)oc3c1C)N2 (stereo not drawn) | 0.00918 | – | 0.557 | 0.00428 | 0.195 µM and 0.0239 µM | 0.0116 | –
CCOC(=O)N1c2ccccc2N(C(=O)OCC)C1CC(=O)/C=C/c1ccccc1 | 7.78 | 10.6 | 6.94 | 10.6 | 18.9 µM | 13.6 | –
Cc1cn(CC(=S)NCCc2c[nH]c3ccccc23)c(=O)[nH]c1=O | > 100 | > 100 | > 100 | – | > 100 µM | > 100 | –
C[C@@]12CC[C@@H](O)C[C@@H]1CC[C@H]1[C@H]2CC[C@@]2(C)[C@H](c3ccc(=O)oc3)CC[C@@]12O | 0.0426 | – | – | 0.142 | 0.0174 µM | 0.0932 | GI50 (OVCAR-5 ovarian): 0.0132 µM; GI50 (HCC-2998 colon): 0.0124 µM; GI50 (MALME-3M melanoma): < 0.01 µM; GI50 (MCF7 breast): < 0.01 µM
O=C(O)C1=C(CO)Oc2cc3c(cc2C1c1ccc2c(c1)OCO2)OCO3 (stereo not drawn) | – | – | > 100 | – | > 100 µM | – | TGI (DMS 114 small cell lung): > 100 µM; TGI (RXF-631 renal): > 100 µM; TGI (DLD-1 colon): > 100 µM; TGI (HOP-18 NSCLC): > 100 µM; TGI (XF 498 CNS): > 100 µM; TGI (M19-MEL melanoma): > 100 µM; TGI (KM20L2 colon): > 100 µM; TGI (DMS 273 small cell lung): > 100 µM; TGI (SNB-78 CNS): > 100 µM
C=C(C)[C@@H]1CC[C@]2(C(=O)O)CC[C@]3(C)[C@H](CC[C@@H]4[C@@]5(C)C/C(=C/c6ccco6)C(=O)C(C)(C)[C@@H]5CC[C@]43C)[C@@H]12 | – | – | – | – | – | 10.7 | GI50 (MCF7 breast): 2.62 µM
c1ccc(-c2cc3nc4ccccc4nc3cc(-c3ccccc3)[nH][nH]2)cc1 | > 100 | > 100 | 53.5 | > 100 | > 100 µM | > 100 | –
C/C=C\C1OC1(C)c1cc(=O)c2c(C)cc3c(c2o1)C(=O)c1c(O)c(C2CC(C)(N(C)C)C(OC(C)=O)C(C)O2)cc(C2CC(N(C)C)C(O)C(C)O2)c1C3=O (stereo not drawn) | 0.488 | 0.0158 | – | 0.00646 | 0.0566 µM | 0.0401 | –
COc1cc2cc(C(=O)N3CC(CCl)c4ccc(NO)cc43)[nH]c2c(OC)c1OC (stereo not drawn) | > 37.2 | – | 0.403 | 1.07 | 0.317 µM | > 32.8 | –
O=C1c2cc3c(cc2[C@@H]2C(O)[C@H]4O[C@H]4C4CCN1C42)OCO3 (stereo partly drawn) | > 37.5 | – | > 37.5 | > 37.5 | > 37.5 µM | – | TGI (DMS 114 small cell lung): > 37.5 µM; TGI (LXFL 529 NSCLC): > 37.5 µM; TGI (XF 498 CNS): > 37.5 µM; TGI (KM20L2 colon): > 37.5 µM; TGI (DMS 273 small cell lung): > 37.5 µM
COc1ccc2c(O)c1-c1c(OC)ccc(c1O)SSc1ccc(OC)c(c1O)-c1c(OC)ccc(c1O)SS2 | > 100 | > 100 | > 100 | – | > 100 µM | > 100 | –
Nc1c(S(=O)(=O)O)cc(S(=O)(=O)O)c2ccc(N=Nc3ccccc3)c(O)c12 | > 100 | > 100 | > 100 | – | > 100 µM | > 100 | –
Cc1nn(CNc2ccc(F)c(Cl)c2)c(=S)n1/N=C/c1ccc(-c2ccc(Cl)cc2Cl)o1 | 41.2 | 29 | 16.9 | – | – | 37.3 | –
O=C(c1ccccc1)c1ccc(N2C(=O)/C(=C/c3cccc(Oc4ccccc4)c3)N=C2c2ccccc2)c(N2C(=O)/C(=C/c3cccc(Oc4ccccc4)c3)N=C2c2ccccc2)c1 | > 100 | > 100 | 35.9 | 48.8 | > 100 µM | 94.3 | –
CC(C)=CCC/C(C)=C/Cc1c2c(c3oc(-c4ccc(O)c(O)c4)c(O)c(=O)c3c1O)C=CC(C)(C)O2 | 15.1 | 7.92 | 6.29 | – | 4.01 µM | 11.4 | –

Compound | TGI (OVCAR-5 ovarian) [µM] | TGI (786-0 renal) [µM] | TGI (HL-60(TB) leukemia) [µM] | TGI (HCC-2998 colon) [µM] | TGI (MALME-3M melanoma) | TGI (MCF7 breast) [µM] | further results
CCOC(=O)c1sc2nc(SC)nc3c2c1NC(=O)CN3c1ccc(F)cc1 | > 100 | – | > 100 | > 100 | > 100 µM | > 100 | –
CO[P@@]1(=O)O[C@@H](c2ccccc2)[C@H](O)[C@@]1(O)c1ccccc1 | > 100 | > 100 | > 100 | – | > 100 µM | > 100 | –
CCn1c2ccccc2c2ccc(C3C4C(=O)N(c5cccc6ccccc56)C(=O)C4ON3C(C(N)=O)c3ccccc3)cc21 (stereo not drawn) | > 25 | > 25 | > 25 | – | > 25 µM | > 25 | –
Nc1ccc(Oc2ccc(C34CC5C6CC7(c8ccc(Oc9ccc(N)cc9)cc8)CC5C(C3)C(C7)C6C4)cc2)cc1 | > 100 | > 100 | > 100 | – | > 100 µM | > 100 | –
CCCCCCC(=O)OC[n+]1ccc(-c2c(COC(=O)NC(C)C)c(COC(=O)NC(C)C)c3n2CCC3)cc1 | > 100 | > 100 | > 71.4 | > 100 | > 100 µM | > 100 | –
CCCCC(CC)C(=O)Oc1ccc(C(=O)c2ccccc2)c(O)c1 (stereo not drawn) | > 100 | – | > 100 | > 100 | > 100 µM | > 100 | –
Nc1[nH]c(=O)nc2c1cnn2COCCO | 73.6 | – | > 100 | – | > 100 µM | – | TGI (DMS 114 small cell lung): > 100 µM; TGI (LXFL 529 NSCLC): > 100 µM; TGI (DLD-1 colon): > 100 µM; TGI (HOP-18 NSCLC): > 100 µM; TGI (XF 498 CNS): > 100 µM; TGI (KM20L2 colon): 6.85 µM; TGI (DMS 273 small cell lung): > 100 µM; TGI (SNB-78 CNS): > 100 µM
CCCCC/C=C\C=C\CCCCCCCCC(=O)OC | > 100 | > 100 | > 100 | – | > 100 µM | > 100 | –
C/C(=C\[Si](C)(C)c1ccco1)C(C)(O)[C@H](C)O (stereo partly drawn) | > 100 | > 100 | > 100 | > 100 | > 100 µM | > 100 | –
CC(C)CC(N)C(=O)NC(CNC(CCC(N)=O)C(=O)NC(CC(C)C)C(=O)NC(CC(C)C)C(=O)O)Cc1ccc2ccccc2c1 (stereo not drawn) | > 10 | > 10 | > 10 | > 10 | > 10 µM | > 10 | –
CC1CC(C)(O)C2C3(C)CCCC2(COC3=O)C12CCC1(CCOC1=O)O2 (stereo not drawn) | > 250 | – | > 250 | > 250 | > 250 µM | > 250 | TGI (DMS 114 small cell lung): > 250 µM; TGI (DLD-1 colon): > 250 µM; TGI (HOP-18 NSCLC): > 250 µM; TGI (XF 498 CNS): > 39.6 µM; TGI (M19-MEL melanoma): > 250 µM; TGI (KM20L2 colon): > 250 µM; TGI (DMS 273 small cell lung): > 250 µM; TGI (SNB-78 CNS): > 250 µM
[O-]c1c2c(nn1-c1ccc(F)cc1)c1ccccc1c[n+]2Cc1ccccc1 | 41.3 | – | 11.1 | 24.8 | 25.6 µM | – | TGI (DMS 114 small cell lung): 32.9 µM; TGI (LXFL 529 NSCLC): 18.8 µM; TGI (DLD-1 colon): 43.7 µM; TGI (XF 498 CNS): 45.2 µM; TGI (KM20L2 colon): 25.9 µM; TGI (SNB-78 CNS): 35.4 µM
CN(C)CCC(=O)[C@@]1(O)CC[C@H]2[C@@H]3CC=C4C[C@@H](O)CC[C@]4(C)[C@H]3CC[C@@]21C | > 100 | 13.6 | 37.7 | 60 | 28.8 µM | 16.8 | –
CCCCCCCCCCCCCCCCCCN(C)CC(COC)OP(=O)([O-])OCC[N+](C)(C)C (stereo not drawn) | 5.95 | 2.57 | 8.53 | 3.07 | 26.6 µM | 14.8 | TGI (DMS 114 small cell lung): 9.75 µM; TGI (LXFL 529 NSCLC): 7.98 µM; TGI (RXF-631 renal): 22 µM; TGI (DLD-1 colon): 12.8 µM; TGI (HOP-18 NSCLC): 9.91 µM; TGI (XF 498 CNS): 16.8 µM; TGI (M19-MEL melanoma): 10.1 µM; TGI (KM20L2 colon): 5.94 µM; TGI (DMS 273 small cell lung): 2.45 µM; TGI (SNB-78 CNS): 13.4 µM
CC1(C=O)CC(CCc2ccccc2)NC1Cc1ccc(O)cc1 (stereo not drawn) | 31.5 | 29.2 | 31.8 | 24.9 | – | 27.1 | –
Cc1csc2nc(-c3cc([N+](=O)[O-])c(Cl)cc3Cl)c(/C=N/N=C(N)N)n12 | 49.4 | 49.3 | 28.9 | 22.1 | 35.3 µM | 37.5 | –
